Assay results reported in patent US20050019260A1, “Animal model for allergy” (priority 2001, published 2005).

Tested on: sheep mammary gland
Test: Single intramammary infusion of lipopolysaccharide, MAL cell collection
Format: in vivo

lipopolysaccharide
MAL cell influx (24 h after single intramammary infusion): predominantly neutrophils | MAL cell influx (day 5 after single intramammary infusion): macrophage infiltration
